The record followed here is patent US12060347B2 (BRISTOL-MYERS SQUIBB COMPANY, priority 2016, dated 2024).

This assay addresses T1, human PAR4 (Homo sapiens, UniProt Q96RI0).
T1 construct: expressed in transfected cells; host or cells: HEK293 PAR4 Clone 1.2A (BMS Arctic ID 383940)
T1 sequence (Q96RI0 18-385): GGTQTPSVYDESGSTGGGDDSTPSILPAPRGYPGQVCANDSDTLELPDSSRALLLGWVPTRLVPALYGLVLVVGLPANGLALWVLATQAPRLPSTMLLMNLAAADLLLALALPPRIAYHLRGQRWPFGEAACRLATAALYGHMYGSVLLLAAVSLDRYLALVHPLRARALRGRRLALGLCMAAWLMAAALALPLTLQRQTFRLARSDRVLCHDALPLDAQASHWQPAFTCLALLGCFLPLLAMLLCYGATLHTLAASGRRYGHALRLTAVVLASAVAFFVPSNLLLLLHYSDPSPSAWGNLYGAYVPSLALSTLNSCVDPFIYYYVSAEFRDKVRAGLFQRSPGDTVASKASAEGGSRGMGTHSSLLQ
In words: PAR4 FLIPR assay: antagonism of agonist-peptide-induced calcium mobilization in PAR4-expressing HEK293 cells. In kind it is cell-based. Conditions: H-Ala-Phe(4-F)-[…]NH2-induced intracellular calcium mobilization, 11-point curves. For orientation: Calcium flux is commonly read through the fluorescence of an indicator in the cells.
`COCCNC(=O)c1cc(-c2nc3c(C)cc(OCCNS(=O)(=O)c4ccc(F)cc4)cc3s2)c2ncc(COC)nc2c1` [Example 228, 8-(6-(2-(4-fluorophenylsulfonamido)ethoxy)-4-methylbenzo[d]thiazol-2-yl)-N-(2-methoxyethyl)-3-(methoxymethyl)quinoxaline-6-carboxamide]: the IC50 is 890 nM.

Regarding `C=Cc1cc(-c2nc3c(C)cc(OCCNS(=O)(=O)c4ccc(F)cc4)cc3s2)c2ncc(OC)nc2c1` [Example 229, 4-fluoro-N-(2-((2-(2-methoxy-7-vinylquinoxalin-5-yl)-4-methylbenzo[d]thiazol-6-yl)oxy)ethyl)benzenesulfonamide], the IC50 was 3.9 nM.

In the case of `C#Cc1cc(-c2nc3c(C)cc(OCCNS(=O)(=O)c4ccc(F)cc4)cc3s2)c2ncc(OC)nc2c1` [Example 230, N-(2-((2-(7-ethynyl-2-methoxyquinoxalin-5-yl)-4-methylbenzo[d]thiazol-6-yl)oxy)ethyl)-4-fluorobenzenesulfonamide], the IC50 was 2.2 nM.

Take `COc1cnc2c(-c3nc4c(C)cc(OCCNS(=O)(=O)c5ccc(F)cc5)cc4s3)cc(C#N)cc2n1` [Example 231, N-(2-((2-(7-cyano-2-methoxyquinoxalin-5-yl)-4-methylbenzo[d]thiazol-6-yl)oxy)ethyl)-4-fluorobenzenesulfonamide]: the IC50 stood at 1 nM.

On to `COCc1cnc2c(-c3nc4c(C)cc(OCCNS(=O)(=O)c5ccc(F)cc5)cc4s3)cc(C#N)cc2n1` [Example 232, N-(2-((2-(7-cyano-2-(methoxymethyl)quinoxalin-5-yl)-4-methylbenzo[d]thiazol-6-yl)oxy)ethyl)-4-fluorobenzenesulfonamide], for which the concentration for half-maximal inhibition (IC50) worked out at 0.7 nM.

Turning to `COCc1cnc2c(-c3nc4c(C)cc(OC)cc4s3)cc(C#N)cc2n1` [Example 233, 8-(6-methoxy-4-methylbenzo[d]thiazol-2-yl)-3-(methoxymethyl)quinoxaline-6-carbonitrile], the half-inhibitory concentration (IC50) amounted to 0.4 nM.

With `C=Cc1cc(-c2nc3c(C)cc(OCCNS(=O)(=O)c4ccc(F)cc4)cc3s2)c2ncc(COC)nc2c1` [Example 234, 4-fluoro-N-(2-((2-(2-(methoxymethyl)-7-vinylquinoxalin-5-yl)-4-methylbenzo[d]thiazol-6-yl)oxy)ethyl)benzenesulfonamide], the IC50 is 1.4 nM.

Regarding `COc1cnc2c(-c3nc4c(C)cc(OCCNS(=O)(=O)c5ccc(F)cc5)cc4s3)cc(CO)cc2n1` [Example 235, 4-fluoro-N-(2-((2-(7-(hydroxymethyl)-2-methoxyquinoxalin-5-yl)-4-methylbenzo[d]thiazol-6-yl)oxy)ethyl)benzenesulfonamide], the IC50 amounted to 2.2 nM.

In the case of `COc1cnc2c(-c3nc4c(C)cc(OCCNS(=O)(=O)c5ccc(F)cc5)cc4s3)cc(C(O)CO)cc2n1` (centres unmarked) [Example 236, N-(2-((2-(7-(1,2-dihydroxyethyl)-2-methoxyquinoxalin-5-yl)-4-methylbenzo[d]thiazol-6-yl)oxy)ethyl)-4-fluorobenzenesulfonamide], the IC50 was found to be 140 nM.

Take `COc1cnc2c(-c3nc4c(C)cc(OCCNS(=O)(=O)c5ccc(F)cc5)cc4s3)cc(CCO)cc2n1` [Example 237, 4-fluoro-N-(2-((2-(7-(2-hydroxyethyl)-2-methoxyquinoxalin-5-yl)-4-methylbenzo[d]thiazol-6-yl)oxy)ethyl)benzenesulfonamide]: the IC50 is 170 nM.

As to `COc1cnc2c(-c3nc4c(C)cc(OCCNS(=O)(=O)c5ccc(F)cc5)cc4s3)cc(CN)cc2n1` [Example 238, N-(2-((2-(7-(aminomethyl)-2-methoxyquinoxalin-5-yl)-4-methylbenzo[d]thiazol-6-yl)oxy)ethyl)-4-fluorobenzenesulfonamide], the IC50 came to 1300 nM.

As for `COc1cnc2c(-c3nc4c(C)cc(OCCNS(=O)(=O)c5ccc(F)cc5)cc4s3)cc(C(C)O)cc2n1` (centres unmarked) [Example 239, 4-fluoro-N-(2-((2-(7-(1-hydroxyethyl)-2-methoxyquinoxalin-5-yl)-4-methylbenzo[d]thiazol-6-yl)oxy)ethyl)benzenesulfonamide], the IC50 was found to be 7.9 nM.

As for `COc1cnc2c(-c3nc4c(C)cc(OCCNS(=O)(=O)c5ccc(F)cc5)cc4s3)cc(C(O)c3ccccc3)cc2n1` (centres unmarked) [Example 240, 4-fluoro-N-(2-((2-(7-(hydroxy(phenyl)methyl)-2-methoxyquinoxalin-5-yl)-4-methylbenzo[d]thiazol-6-yl)oxy)ethyl)benzenesulfonamide], the IC50 came to 72 nM.

Take `C=C(C)c1cc(-c2nc3c(C)cc(OCCNS(=O)(=O)c4ccc(F)cc4)cc3s2)c2ncc(OC)nc2c1` [Example 241, 4-fluoro-N-(2-((2-(2-methoxy-7-(prop-1-en-2-yl)quinoxalin-5-yl)-4-methylbenzo[d]thiazol-6-yl)oxy)ethyl)benzenesulfonamide]: the IC50 came out at 5.4 nM.

Turning to `COc1cnc2c(-c3nc4c(C)cc(OCCNS(=O)(=O)c5ccc(F)cc5)cc4s3)cc(C(C)(C)O)cc2n1` [Example 242, 4-fluoro-N-(2-((2-(7-(2-hydroxypropan-2-yl)-2-methoxyquinoxalin-5-yl)-4-methylbenzo[d]thiazol-6-yl)oxy)ethyl)benzenesulfonamide], the IC50 amounted to 120 nM.

As for `COc1cnc2c(-c3nc4c(C)c(F)c(OC)cc4s3)cc(CO)cc2n1` [Example 243, (8-(5-fluoro-6-methoxy-4-methylbenzo[d]thiazol-2-yl)-3-methoxyquinoxalin-6-yl) methanol], the IC50 came out at 1.2 nM.

On to `COc1cnc2c(-c3nc4c(C)c(F)c(OC)cc4s3)cc(C(C)O)cc2n1` (centres unmarked) [Example 244, 1-(8-(5-fluoro-6-methoxy-4-methylbenzo[d]thiazol-2-yl)-3-methoxyquinoxalin-6-yl) ethanol], for which the IC50 amounted to 2 nM.

For the compound `COc1cnc2c(-c3nc4c(C)c(F)c(OC)cc4s3)cc(C(O)c3ccccc3)cc2n1` (centres unmarked) [Example 245, (8-(5-fluoro-6-methoxy-4-methylbenzo[d]thiazol-2-yl)-3-methoxyquinoxalin-6-yl) (phenyl)methanol], the IC50 stood at 92 nM.

As for `COc1cnc2c(-c3nc4c(C)c(F)c(OC)cc4s3)cc(C(O)C3CC3)cc2n1` (centres unmarked) [Example 246, Cyclopropyl(8-(5-fluoro-6-methoxy-4-methylbenzo[d]thiazol-2-yl)-3-methoxyquinoxalin-6-yl)methanol], the IC50 came to 140 nM.

For `Cc1cnc2c(-c3nc4c(C)cc(OCCNS(=O)(=O)c5ccc(F)cc5)cc4s3)cc(F)cc2n1` [Example 247, 4-fluoro-N-(2-((2-(7-fluoro-2-methylquinoxalin-5-yl)-4-methylbenzo[d]thiazol-6-yl)oxy)ethyl)benzenesulfonamide], the 50% inhibitory concentration (IC50) worked out at 19 nM.

`COc1cnc2c(-c3nc4cc(F)c(OC(C)C)cc4s3)cc(CO)cc2n1` [Example 248, (8-(5-fluoro-6-isopropoxybenzo[d]thiazol-2-yl)-3-methoxyquinoxalin-6-yl)methanol]: the half-maximal inhibitory concentration (IC50) is 19 nM.

Take `COc1cnc2c(-c3nc4c(C)cc(OCCNS(=O)(=O)c5cccnc5)cc4s3)cc(Cl)cc2n1` [Example 249, N-(2-((2-(7-chloro-2-methoxyquinoxalin-5-yl)-4-methylbenzo[d]thiazol-6-yl)oxy)ethyl)pyridine-3-sulfonamide]: the IC50 is 6.9 nM.

For the compound `CCOC(=O)COc1cc(C)c2nc(-c3cc(Cl)cc4nc(OC)cnc34)sc2c1` [Example 250, Ethyl 2-((2-(7-chloro-2-methoxyquinoxalin-5-yl)-4-methylbenzo[d]thiazol-6-yl)oxy) acetate], the IC50 stood at 31 nM.

Turning to `COc1cnc2c(-c3nc4c(C)cc(OCC(=O)O)cc4s3)cc(Cl)cc2n1` [Example 251, 2-((2-(7-chloro-2-methoxyquinoxalin-5-yl)-4-methylbenzo[d]thiazol-6-yl)oxy)acetic acid], the IC50 stood at 17 nM.

Consider `COc1ccc(NC(=O)OCCOc2cc(C)c3nc(-c4cc(CO)cc5nc(OC)cnc45)sc3c2)cn1` [Example 252, 2-((2-(7-(hydroxymethyl)-2-methoxyquinoxalin-5-yl)-4-methylbenzo[d]thiazol-6-yl)oxy)ethyl (6-methoxypyridin-3-yl)carbamate], for which the IC50 stood at 0.5 nM.

On to `COCc1cnc2c(-c3nc4ccc(OC)cc4s3)cc(C)cc2n1` [Example 253, 6-methoxy-2-(2-(methoxymethyl)-7-methylquinoxalin-5yl)benzo[d]thiazole], for which the IC50 was 0.6 nM.

On to `COCc1cnc2c(-c3nc4c(F)cc(OC)cc4s3)cc(C)cc2n1` [Example 254, 4-fluoro-6-methoxy-2-(2-(methoxymethyl)-7-methylquinoxalin-5-yl)benzo[d]thiazole], for which the IC50 was found to be 1.5 nM.

With `CCOc1ccc2nc(-c3cc(C)cc4nc(COC)cnc34)sc2c1` [Example 255, 6-ethoxy-2-(2-(methoxymethyl)-7-methylquinoxalin-5-yl)benzo[d]thiazole], the IC50 is 0.8 nM.

With `COCc1cnc2c(-c3nc4ccccc4s3)cc(C)cc2n1` [Example 256, 2-(2-(methoxymethyl)-7-methylquinoxalin-5-yl)benzo[d]thiazole], the IC50 was found to be 1.2 nM.

Take `COCc1cnc2c(-c3nc4c(F)cc(F)cc4s3)cc(C)cc2n1` [Example 257, 4,6-difluoro-2-(2-(methoxymethyl)-7-methylquinoxalin-5-yl)benzo[d]thiazole]: the IC50 turned out to be 2.1 nM.

For the compound `COCc1cnc2c(-c3nc4c(OC)cc(OC)cc4s3)cc(C)cc2n1` [Example 258, 4,6-dimethoxy-2-(2-(methoxymethyl)-7-methylquinoxalin-5-yl)benzo[d]thiazole], the IC50 was 2.8 nM.

Turning to `COCc1cnc2c(-c3nc4c(OC)cccc4s3)cc(C)cc2n1` [Example 259, 4-methoxy-2-(2-(methoxymethyl)-7-methylquinoxalin-5-yl)benzo[d]thiazole], the IC50 amounted to 14 nM.

Broadly, the IC50 is the concentration that inhibits the measured activity by half.
